These results are taken from patent publication US20110201818A1, “POLO-LIKE KINASE INHIBITORS” (TAKEDA PHARMACEUTICAL COMPANY LIMITED, priority 2007, published 2011).

SMILES strings stand for the structures.

The target of the assay is T1, human PLK1 (Homo sapiens, UniProt P53350).
T1 construct: FLAG (DYKDDDDK) (N); made in house; host or cells: Sf21 insect cells, recombinant baculovirus (pFASTBAC1, Bac-to-Bac)
T1 sequence (P53350 with tags, fused parts or gaps): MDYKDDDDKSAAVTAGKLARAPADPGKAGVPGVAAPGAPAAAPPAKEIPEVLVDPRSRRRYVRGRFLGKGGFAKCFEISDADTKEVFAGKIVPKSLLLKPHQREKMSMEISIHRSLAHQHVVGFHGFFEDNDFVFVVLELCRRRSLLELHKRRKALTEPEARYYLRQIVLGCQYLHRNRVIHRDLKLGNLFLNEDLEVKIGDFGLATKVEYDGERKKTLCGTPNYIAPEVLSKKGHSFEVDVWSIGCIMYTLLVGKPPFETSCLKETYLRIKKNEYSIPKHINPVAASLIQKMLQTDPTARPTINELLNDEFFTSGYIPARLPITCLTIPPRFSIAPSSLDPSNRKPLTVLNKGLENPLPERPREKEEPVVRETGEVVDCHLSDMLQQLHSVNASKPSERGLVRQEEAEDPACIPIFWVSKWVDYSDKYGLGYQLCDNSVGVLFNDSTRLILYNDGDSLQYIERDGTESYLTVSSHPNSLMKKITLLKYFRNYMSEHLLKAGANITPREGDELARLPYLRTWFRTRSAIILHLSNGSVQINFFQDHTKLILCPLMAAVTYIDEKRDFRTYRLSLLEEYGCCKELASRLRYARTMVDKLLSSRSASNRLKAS
The assay can be described thus: PLK1 in vitro enzymatic activity assay (phosphorylation of alpha casein by recombinant PLK1). Type of assay: biochemical. As to conditions: recombinant FLAG-tagged PLK1, alpha casein substrate, 500 nmol/L ATP, 40 min at room temperature; read-out: pIC50 (PLK1) (converted). The protocol:
PCR was performed using the vector as a template. […] After XbaI and XhoI digestion of the PCR product, the fragment was subcloned into pFASTBAC1 (Invitrogen, USA). Recombinant baculoviruses were prepared according to the procedure of the Bac-to-Bac baculovirus expression system (Invitrogen, USA). Sf21 cells were purchased from Invitrogen and grown in Sf-900 II SFM medium containing 10% fetal bovine serum, 50 μg/mL gentamicin and 0.1% pluronic F-68 (Invitrogen, USA) at 28° C. For preparation of PLK1 enzyme, Sf21 cells were infected with recombinant baculoviruses and cultured at 28° C. for 72 h.
The inhibition of PLK1 by the compounds was determined with the following assay that measures the phosphorylation of alpha casein by recombinant PLK1. Kinase reactions were performed at room temperature for 40 min in the kinase reaction buffer (25 mmol/L HEPES, pH 7.5, 10 mmol/L magnesium acetate, 1 mmol/L dithiothreitol) containing 50 ng PLK1 enzyme, 0.1 μCi [γ-^32P]ATP, 500 nmol/L ATP and 3 μg alpha casein (MP Biomedicals Inc., USA) in a final volume of 50 μL. The incubation was terminated by the addition of 10% trichloroacetic acid (Wako, Japan). Phosphorylated proteins were filtrated in GF/C filter plates (Packard, USA) with a Cell harvester (Packard, USA) and washed out free [γ-^32P]-ATP with 250 mmol/L phosphoric acid. Then, the plates were air dried for 60 min at 45° C., followed by the addition of 20 μL of MicroScint-O (Packard, USA). The radioactivity was counted by a Top-count scintillation counter (Packard, USA).
With `CN1CCC(NC(=O)c2ccc(Nc3ncc4c(n3)N(C3CCCC3)CC(F)(F)C(=O)N4C)c(C(F)(F)F)c2)CC1` [Compound 30, 4-(9-cyclopentyl-7,7-difluoro-5-methyl-6-oxo-6,7,8,9-tetrahydro-5H-pyrimido[4,5-b][1,4]diazepin-2-ylamino)-N-(1-methylpiperidin-4-yl)-3-(trifluoromethyl)benzamide], the IC50 is over 2 nM. Turning to `COc1cc(C(=O)O)c(F)cc1Nc1ncc2c(n1)N(C1CCCC1)CC(F)(F)C(=O)N2C` [Compound 31, 4-(9-Cyclopentyl-7,7-difluoro-5-methyl-6-oxo-6,7,8,9-tetrahydro-5H-pyrimido[4,5-b][1,4]diazepin-2-ylamino)-2-fluoro-5-methoxybenzoic acid], the IC50 is at most 2 nM. Then `COc1cc(C(=O)NC2CCN(C)CC2)ccc1Nc1ncc2c(n1)N(C1CCCCC1)CC(F)(F)C(=O)N2C` [Compound 33, 4-(9-cyclohexyl-7,7-difluoro-5-methyl-6-oxo-6,7,8,9-tetrahydro-5H-pyrimido[4,5-b][1,4]diazepin-2-ylamino)-3-methoxy-N-(1-methylpiperidin-4-yl)benzamide], with at most 2 nM. For `COc1cc(C(=O)NN2CCN(C)CC2)ccc1Nc1ncc2c(n1)N(C1CCCCC1)CC(F)(F)C(=O)N2C` [Compound 34, 4-(9-cyclohexyl-7,7-difluoro-5-methyl-6-oxo-6,7,8,9-tetrahydro-5H-pyrimido[4,5-b][1,4]diazepin-2-ylamino)-3-methoxy-N-(4-methylpiperazin-1-yl)benzamide], the IC50 was at most 2 nM. For the compound `COc1cc(C(=O)NC2CN(C)C2)ccc1Nc1ncc2c(n1)N(C1CCCCC1)CC(F)(F)C(=O)N2C` [Compound 35, 4-(9-Cyclohexyl-7,7-difluoro-5-methyl-6-oxo-6,7,8,9-tetrahydro-5H-pyrimido[4,5-b][1,4]diazepin-2-ylamino)-3-methoxy-N-(1-methylazetidin-3-yl)benzamide], the IC50 is at most 2 nM.

For the compound `CCN1CCC(NC(=O)c2ccc(Nc3ncc4c(n3)N(C3CCCCC3)CC(F)(F)C(=O)N4C)c(OC)c2)CC1` [Compound 36, 4-(9-cyclohexyl-7,7-difluoro-5-methyl-6-oxo-6,7,8,9-tetrahydro-5H-pyrimido[4,5-b][1,4]diazepin-2-ylamino)-N-(1-ethylpiperidin-4-yl)-3-methoxybenzamide], the IC50 is at most 2 nM. Then `COc1cc(C(=O)N[C@H]2CCCNC2)ccc1Nc1ncc2c(n1)N(C1CCCCC1)CC(F)(F)C(=O)N2C` [Compound 37, (S)-4-(9-cyclohexyl-7,7-difluoro-5-methyl-6-oxo-6,7,8,9-tetrahydro-5H-pyrimido[4,5-b][1,4]diazepin-2-ylamino)-3-methoxy-N-(piperidin-3-yl)benzamide], with over 2 nM. As for `COc1cc(C(=O)N[C@@H]2CCCNC2)ccc1Nc1ncc2c(n1)N(C1CCCCC1)CC(F)(F)C(=O)N2C` [Compound 38, (R)-4-(9-cyclohexyl-7,7-difluoro-5-methyl-6-oxo-6,7,8,9-tetrahydro-5H-pyrimido[4,5-b][1,4]diazepin-2-ylamino)-3-methoxy-N-(piperidin-3-yl)benzamide], the IC50 was at most 2 nM. For `COc1cc(C(=O)N[C@H]2CC[C@H](O)CC2)ccc1Nc1ncc2c(n1)N(C1CCCCC1)CC(F)(F)C(=O)N2C` [Compound 40, 4-(9-cyclohexyl-7,7-difluoro-5-methyl-6-oxo-6,7,8,9-tetrahydro-5H-pyrimido[4,5-b][1,4]diazepin-2-ylamino)-N-((1r,4r)-4-hydroxycyclohexyl)-3-methoxybenzamide], the IC50 was at most 2 nM. Then `COc1cc(C(=O)N[C@H]2CC[C@H](OP(=O)(O)O)CC2)ccc1Nc1ncc2c(n1)N(C1CCCCC1)CC(F)(F)C(=O)N2C` [Compound 41, (1R,4R)-4-(4-(9-cyclohexyl-7,7-difluoro-5-methyl-6-oxo-6,7,8,9-tetrahydro-5H-pyrimido[4,5-b][1,4]diazepin-2-ylamino)-3-methoxybenzamido)cyclohexyl dihydrogen phosphate], with at most 2 nM.

As to `COc1cc(C(=O)NC2CCCNCC2)ccc1Nc1ncc2c(n1)N(C1CCCCC1)CC(F)(F)C(=O)N2C` (centres unmarked) [Compound 42, N-(azepan-4-yl)-4-(9-cyclohexyl-7,7-difluoro-5-methyl-6-oxo-6,7,8,9-tetrahydro-5H-pyrimido[4,5-b][1,4]diazepin-2-ylamino)-3-methoxybenzamide], the IC50 is at most 2 nM. On to `COc1cc(C(=O)NC2CNC2)ccc1Nc1ncc2c(n1)N(C1CCCCC1)CC(F)(F)C(=O)N2C` [Compound 43, N-(azetidin-3-yl)-4-(9-cyclohexyl-7,7-difluoro-5-methyl-6-oxo-6,7,8,9-tetrahydro-5H-pyrimido[4,5-b][1,4]diazepin-2-ylamino)-3-methoxybenzamide], for which the IC50 was at most 2 nM. Then `COc1cc(C(=O)NC2CCN(CCO)CC2)ccc1Nc1ncc2c(n1)N(C1CCCCC1)CC(F)(F)C(=O)N2C` [Compound 44, 4-(9-cyclohexyl-7,7-difluoro-5-methyl-6-oxo-6,7,8,9-tetrahydro-5H-pyrimido[4,5-b][1,4]diazepin-2-ylamino)-N-(1-(2-hydroxyethyl)piperidin-4-yl)-3-methoxybenzamide], with at most 2 nM; and `COc1cc(C(=O)N[C@H]2CN3CCC2CC3)ccc1Nc1ncc2c(n1)N(C1CCCCC1)CC(F)(F)C(=O)N2C` [Compound 45, (R)-4-(9-cyclohexyl-7,7-difluoro-5-methyl-6-oxo-6,7,8,9-tetrahydro-5H-pyrimido[4,5-b][1,4]diazepin-2-ylamino)-3-methoxy-N-(quinuclidin-3-yl)benzamide], with at most 2 nM. With `COc1cc(C(=O)N[C@@H]2CN3CCC2CC3)ccc1Nc1ncc2c(n1)N(C1CCCCC1)CC(F)(F)C(=O)N2C` [Compound 46, (S)-4-(9-cyclohexyl-7,7-difluoro-5-methyl-6-oxo-6,7,8,9-tetrahydro-5H-pyrimido[4,5-b][1,4]diazepin-2-ylamino)-3-methoxy-N-(quinuclidin-3-yl)benzamide], the IC50 is over 2 nM. With `COc1cc(C(=O)NC2CC3CCC(C2)N3C)ccc1Nc1ncc2c(n1)N(C1CCCCC1)CC(F)(F)C(=O)N2C` (centres unmarked) [Compound 51, 4-(9-cyclohexyl-7,7-difluoro-5-methyl-6-oxo-6,7,8,9-tetrahydro-5H-pyrimido[4,5-b][1,4]diazepin-2-ylamino)-3-methoxy-N-(8-methyl-8-azabicyclo[3.2.1]octan-3-yl)benzamide], the IC50 is at most 2 nM. In the case of `COc1cc(C(=O)NCCCN(C)C)ccc1Nc1ncc2c(n1)N(C1CCCCC1)CC(F)(F)C(=O)N2C` [Compound 54, 4-(9-cyclohexyl-7,7-difluoro-5-methyl-6-oxo-6,7,8,9-tetrahydro-5H-pyrimido[4,5-b][1,4]diazepin-2-ylamino)-N-(3-(dimethylamino)propyl)-3-methoxybenzamide], the IC50 is over 2 nM. Then `COc1cc(C(=O)NCCN2CCCC2)ccc1Nc1ncc2c(n1)N(C1CCCCC1)CC(F)(F)C(=O)N2C` [Compound 56, 4-(9-cyclohexyl-7,7-difluoro-5-methyl-6-oxo-6,7,8,9-tetrahydro-5H-pyrimido[4,5-b][1,4]diazepin-2-ylamino)-3-methoxy-N-(2-(pyrrolidin-1-yl)ethyl)benzamide], with over 2 nM; and `COc1cc(C(=O)N2CCN(C)CC2)ccc1Nc1ncc2c(n1)N(C1CCCCC1)CC(F)(F)C(=O)N2C` [Compound 57, 9-cyclohexyl-7,7-difluoro-2-(2-methoxy-4-(4-methylpiperazine-1-carbonyl)-phenylamino)-5-methyl-8,9-dihydro-5H-pyrimido[4,5-b][1,4]diazepin-6(7H)-one], with over 2 nM. On to `COc1cc(C(N)=O)ccc1Nc1ncc2c(n1)N(C1CCCCC1)CC(F)(F)C(=O)N2C` [Compound 58, 4-(9-cyclohexyl-7,7-difluoro-5-methyl-6-oxo-6,7,8,9-tetrahydro-5H-pyrimido[4,5-b][1,4]diazepin-2-ylamino)-3-methoxybenzamide], for which the IC50 is at most 2 nM. Turning to `CNC(=O)c1ccc(Nc2ncc3c(n2)N(C2CCCCC2)CC(F)(F)C(=O)N3C)c(OC)c1` [Compound 60, 4-(9-cyclohexyl-7,7-difluoro-5-methyl-6-oxo-6,7,8,9-tetrahydro-5H-pyrimido[4,5-b][1,4]diazepin-2-ylamino)-3-methoxy-N-methylbenzamide], the IC50 is at most 2 nM. For the compound `COc1cc(C(=O)NN(C)C)ccc1Nc1ncc2c(n1)N(C1CCCCC1)CC(F)(F)C(=O)N2C` [Compound 61, 4-(9-cyclohexyl-7,7-difluoro-5-methyl-6-oxo-6,7,8,9-tetrahydro-5H-pyrimido[4,5-b][1,4]diazepin-2-ylamino)-3-methoxy-N′,N′-dimethylbenzohydrazide], the IC50 is at most 2 nM. Under `COc1cc(C(=O)NC[C@@H](C)O)ccc1Nc1ncc2c(n1)N(C1CCCCC1)CC(F)(F)C(=O)N2C` [Compound 62, (R)-4-(9-cyclohexyl-7,7-difluoro-5-methyl-6-oxo-6,7,8,9-tetrahydro-5H-pyrimido[4,5-b][1,4]diazepin-2-ylamino)-N-(2-hydroxypropyl)-3-methoxybenzamide] stands at most 2 nM.
